Patent US11927585B2, “Solvent-based inks and coatings for food contact applications” (SUN CHEMICAL CORPORATION, priority 2020, dated 2024)
Structures can show the parent of a compound that is named as a salt. Where two headings read alike, the source gives them in different places.

Key:
[1] = cited from earlier work
[2] = Worst-case calculation (100% migration), standard EU Cube exposure model; conditions: for Worst Case Calculation of migration in EU Cube model: Basis for Safety outcome: volatile substance; for Worst-case calculation as a percentage of SML (or restriction), EU Cube / Worst Case Calculation of migration in EU Cube model (as a percentage of SML): 100% migration; for Worst-case calculation as a percentage of SML (or restriction), EU Cube: 2.0 g/m^2 dry film; for Worst Case Calculation of migration in EU Cube model (as a percentage of SML): dry coat weight 2.0 g/m^2
[3] = Worst-case calculation, Application 2 cheese packaging wrap exposure scenario; conditions: 100% migration, 2.0 g/m^2 dry film
[4] = Worst-case calculation, Application 1 yoghurt pot lid exposure scenario; conditions: 100% migration, 2.0 g/m^2 dry film
[5] = Specific migration limit (SML) from regulation or hazard assessment (TTC, VEGA QSAR, Cramer Class); conditions: source HA (internal hazard assessment), self-derived SML; EU Cube model
[6] = source PR (EU Plastics Regulation No. 10/2011) or SO (Swiss Ordinance), EU Cube model
[7] = substance in ink SBDEV976 (Ex. 4C Cyan)
[8] = substance in ink SBDEV977 (Ex. 4A Yellow)
[9] = substance in ink SBDEV979 (Ex. 4D Black)
[10] = substance in ink SBDEV980 (Ex. 4B Red)
[11] = Source of SML or restriction: SO (Swiss Ordinance)
[12] = source of SML or restriction: SO (Swiss Ordinance)

CCCOC(C)=O [0000109-60-4, Acetic acid, propyl ester]
SML or Restriction (mg substance/kg food) [1, 6]: 60 mg substance/kg food
Worst Case Calculation of migration in EU Cube model: Basis for Safety outcome [2, 7]: Converter
Worst Case Calculation of migration in EU Cube model: Basis for Safety outcome [2, 8]: Converter
Worst Case Calculation of migration in EU Cube model: Basis for Safety outcome [2, 9]: Converter
Worst Case Calculation of migration in EU Cube model: Basis for Safety outcome [2, 10]: Converter

CCCCOC(=O)CC(O)(CC(=O)OCCCC)C(=O)OCCCC [Tributyl citrate]
SML (or restriction) [1, 11]: 0.05 mg substance/kg food
SML (or restriction) [1, 12]: 0.05 mg substance/kg food

CCCOC(C)=O [Acetic acid, propyl ester]
SML (or restriction) [1, 11]: 60 mg substance/kg food
SML (or restriction) [1, 12]: 60 mg substance/kg food

CCO [ethanol]
SML (or restriction) ([1]; Source of SML or restriction: PR (EU Plastics Regulation No. 10/2011)): 60 mg substance/kg food
SML (or restriction) ([1]; source of SML or restriction: PR (EU Plastics Regulation No. 10/2011)): 60 mg substance/kg food

CCCCOC(=O)CC(O)(CC(=O)OCCCC)C(=O)OCCCC [0000077-94-1, Tributyl citrate]
Worst-case calculation as a percentage of SML (or restriction), Application 2 ([3]; product SBDEV976): 79.6 percentage of SML (or restriction)
Worst-case calculation as a percentage of SML (or restriction), Application 2 ([3]; product SBDEV977): 76.7 percentage of SML (or restriction)
Worst-case calculation as a percentage of SML (or restriction), Application 2 ([3]; product SBDEV979): 76.0 percentage of SML (or restriction)
Worst-case calculation as a percentage of SML (or restriction), Application 2 ([3]; product SBDEV980): 76.9 percentage of SML (or restriction)
Worst-case calculation as a percentage of SML (or restriction), Application 2 ([3]; product SBDEV1284): 76.01 percentage of SML (or restriction)
Worst-case calculation as a percentage of SML (or restriction), Application 2 ([3]; product SBDEV1285): 76.01 percentage of SML (or restriction)
Worst-case calculation as a percentage of SML (or restriction), Application 2 ([3]; product SBDEV1286): 76.01 percentage of SML (or restriction)
Worst-case calculation as a percentage of SML (or restriction), Application 2 ([3]; product SBDEV1287): 76.01 percentage of SML (or restriction)
SML or Restriction (mg substance/kg food) [1, 6]: 0.05 mg substance/kg food
Worst-case calculation as a percentage of SML (or restriction), EU Cube ([2]; product SBDEV976): 55.2 percentage of SML (or restriction)
Worst-case calculation as a percentage of SML (or restriction), EU Cube ([2]; product SBDEV977): 53.2 percentage of SML (or restriction)
Worst-case calculation as a percentage of SML (or restriction), EU Cube ([2]; product SBDEV979): 52.8 percentage of SML (or restriction)
Worst-case calculation as a percentage of SML (or restriction), EU Cube ([2]; product SBDEV980): 53.4 percentage of SML (or restriction)
Worst-case calculation as a percentage of SML (or restriction), EU Cube ([2]; product SBDEV1284): 52.8 percentage of SML (or restriction)
Worst-case calculation as a percentage of SML (or restriction), EU Cube ([2]; product SBDEV1285): 52.8 percentage of SML (or restriction)
Worst-case calculation as a percentage of SML (or restriction), EU Cube ([2]; product SBDEV1286): 52.8 percentage of SML (or restriction)
Worst-case calculation as a percentage of SML (or restriction), EU Cube ([2]; product SBDEV1287): 52.8 percentage of SML (or restriction)
Worst Case Calculation of migration in EU Cube model (as a percentage of SML) [2, 7]: 55.2 percentage of SML
Worst Case Calculation of migration in EU Cube model (as a percentage of SML) [2, 8]: 53.2 percentage of SML
Worst Case Calculation of migration in EU Cube model (as a percentage of SML) [2, 9]: 52.8 percentage of SML
Worst Case Calculation of migration in EU Cube model (as a percentage of SML) [2, 10]: 53.4 percentage of SML
Worst-case calculation as a percentage of SML (or restriction), Application 1 ([4]; product SBDEV976): 21.7 percentage of SML (or restriction)
Worst-case calculation as a percentage of SML (or restriction), Application 1 ([4]; product SBDEV977): 20.9 percentage of SML (or restriction)
Worst-case calculation as a percentage of SML (or restriction), Application 1 ([4]; product SBDEV979): 20.8 percentage of SML (or restriction)
Worst-case calculation as a percentage of SML (or restriction), Application 1 ([4]; product SBDEV980): 21.0 percentage of SML (or restriction)
Worst-case calculation as a percentage of SML (or restriction), Application 1 ([4]; product SBDEV1284): 20.73 percentage of SML (or restriction)
Worst-case calculation as a percentage of SML (or restriction), Application 1 ([4]; product SBDEV1285): 20.73 percentage of SML (or restriction)
Worst-case calculation as a percentage of SML (or restriction), Application 1 ([4]; product SBDEV1286): 20.73 percentage of SML (or restriction)
Worst-case calculation as a percentage of SML (or restriction), Application 1 ([4]; product SBDEV1287): 20.73 percentage of SML (or restriction)

CCO [0000064-17-5, ethanol]
SML or Restriction (mg substance/kg food) [1, 6]: 60 mg substance/kg food
Worst Case Calculation of migration in EU Cube model: Basis for Safety outcome [2, 7]: Converter
Worst Case Calculation of migration in EU Cube model: Basis for Safety outcome [2, 8]: Converter
Worst Case Calculation of migration in EU Cube model: Basis for Safety outcome [2, 9]: Converter
Worst Case Calculation of migration in EU Cube model: Basis for Safety outcome [2, 10]: Converter

CCCC1OC(CCC)OC(CCC)O1 (stereo not shown) [0002396-43-2, 2,4,6-tripropyl-1,3,5-Trioxane]
Worst-case calculation as a percentage of SML (or restriction), Application 2 ([3]; product SBDEV976): 87.8 percentage of SML (or restriction)
Worst-case calculation as a percentage of SML (or restriction), Application 2 ([3]; product SBDEV977): 96.5 percentage of SML (or restriction)
Worst-case calculation as a percentage of SML (or restriction), Application 2 ([3]; product SBDEV980): 95.0 percentage of SML (or restriction)
Worst-case calculation as a percentage of SML (or restriction), Application 2 ([3]; product SBDEV1284): 95.0 percentage of SML (or restriction)
Worst-case calculation as a percentage of SML (or restriction), Application 2 ([3]; product SBDEV1285): 96.5 percentage of SML (or restriction)
Worst-case calculation as a percentage of SML (or restriction), Application 2 ([3]; product SBDEV1286): 87.8 percentage of SML (or restriction)
Worst-case calculation as a percentage of SML (or restriction), Application 2 ([3]; product SBDEV1287): 97.9 percentage of SML (or restriction)
SML or Restriction (mg substance/kg food) [5]: 0.09 mg substance/kg food
Worst-case calculation as a percentage of SML (or restriction), EU Cube ([2]; product SBDEV976): 61 percentage of SML (or restriction)
Worst-case calculation as a percentage of SML (or restriction), EU Cube ([2]; product SBDEV977): 67 percentage of SML (or restriction)
Worst-case calculation as a percentage of SML (or restriction), EU Cube ([2]; product SBDEV980): 60 percentage of SML (or restriction)
Worst-case calculation as a percentage of SML (or restriction), EU Cube ([2]; product SBDEV1284): 66 percentage of SML (or restriction)
Worst-case calculation as a percentage of SML (or restriction), EU Cube ([2]; product SBDEV1285): 67 percentage of SML (or restriction)
Worst-case calculation as a percentage of SML (or restriction), EU Cube ([2]; product SBDEV1286): 61 percentage of SML (or restriction)
Worst-case calculation as a percentage of SML (or restriction), EU Cube ([2]; product SBDEV1287): 68 percentage of SML (or restriction)
Worst Case Calculation of migration in EU Cube model (as a percentage of SML) [2, 7]: 61 percentage of SML
Worst Case Calculation of migration in EU Cube model (as a percentage of SML) [2, 8]: 67 percentage of SML
Worst Case Calculation of migration in EU Cube model (as a percentage of SML) [2, 9]: 65 percentage of SML
Worst Case Calculation of migration in EU Cube model (as a percentage of SML) [2, 10]: 66 percentage of SML
Worst-case calculation as a percentage of SML (or restriction), Application 1 ([4]; product SBDEV976): 24.0 percentage of SML (or restriction)
Worst-case calculation as a percentage of SML (or restriction), Application 1 ([4]; product SBDEV977): 26.4 percentage of SML (or restriction)
Worst-case calculation as a percentage of SML (or restriction), Application 1 ([4]; product SBDEV980): 26.0 percentage of SML (or restriction)
Worst-case calculation as a percentage of SML (or restriction), Application 1 ([4]; product SBDEV1284): 26.0 percentage of SML (or restriction)
Worst-case calculation as a percentage of SML (or restriction), Application 1 ([4]; product SBDEV1285): 26.4 percentage of SML (or restriction)
Worst-case calculation as a percentage of SML (or restriction), Application 1 ([4]; product SBDEV1286): 24.0 percentage of SML (or restriction)
Worst-case calculation as a percentage of SML (or restriction), Application 1 ([4]; product SBDEV1287): 26.7 percentage of SML (or restriction)

O=C(O)c1c(-c2ccc(-c3ccccc3)cc2)[nH]c2nc(-c3ccc(-c4ccccc4)cc3)nc(-c3ccc(-c4ccccc4)cc3)c12 [2,4,6-Tris-Biphenyl-4-Yl-7H-Pyrrolo[2,3-D]Pyrimidine-5-Carboxylic Acid]
SML (or restriction) ([1]; Source of SML or restriction: Default 10 ppb): 0.01 mg substance/kg food
SML or Restriction (mg substance/kg food) ([1]; source Default 10 ppb): 0.01 mg substance/kg food
Worst Case Calculation of migration in EU Cube model (as a percentage of SML) [2, 10]: 380 percentage of SML

O=Cc1ccc(Cl)cc1 [0000104-88-1, 4-Chlorobenzaldehyde]
Worst-case calculation as a percentage of SML (or restriction), Application 2 ([3]; product SBDEV980): 20.2 percentage of SML (or restriction)
Worst-case calculation as a percentage of SML (or restriction), Application 2 ([3]; product SBDEV1285): 20.2 percentage of SML (or restriction)
SML or Restriction (mg substance/kg food) [5]: 0.09 mg substance/kg food
Worst-case calculation as a percentage of SML (or restriction), EU Cube ([2]; product SBDEV980): 14 percentage of SML (or restriction)
Worst-case calculation as a percentage of SML (or restriction), EU Cube ([2]; product SBDEV1285): 14 percentage of SML (or restriction)
Worst Case Calculation of migration in EU Cube model (as a percentage of SML) [2, 10]: 14 percentage of SML
Worst-case calculation as a percentage of SML (or restriction), Application 1 ([4]; product SBDEV980): 5.5 percentage of SML (or restriction)
Worst-case calculation as a percentage of SML (or restriction), Application 1 ([4]; product SBDEV1285): 5.5 percentage of SML (or restriction)
